The subject of data set [1] is Escherichia coli. Description: Minimum Inhibitory Concentration (antimicrobial activity), Escherichia coli. In kind it is cell-based.
Data set [2] relates to Proteus vulgaris. Nature of the data set: Minimum Inhibitory Concentration (antimicrobial activity), Proteus vulgaris. In kind it is cell-based. Conditions: read-out: Minimum Inhibitory Concentration (MIC).
Data set [3] deals with Salmonella. Description: Minimum Inhibitory Concentration (antimicrobial activity), Salmonella. In kind it is cell-based.
In data set [4] the test system is Staphylococcus aureus Smith S-424. Nature of the data set: ED50 in mice suffering from infectious disease, Staphylococcus aureus Smith S-424. In kind it is in vivo. The method, then: (§1) The ED50 values of the above obtained compounds were determined by intravenously administering the compounds to mice suffering from infectious diseases caused by various bacteria and were compared with those obtained using known antibiotics.

Data set [5] is described as follows: acute toxicity in mice (LD50). To be noted: mouse, in vivo.
In data set [6] the test system is Salmonella enteritidis No.11. Nature of the data set: ED50 in mice suffering from infectious disease, Salmonella enteritidis No.11. In kind it is in vivo. Conditions: Salmonella enterica. The method, then:
as §1

The test system of data set [7] is Proteus vulgaris C-73-9. Nature of the data set: ED50 in mice suffering from infectious disease, Proteus vulgaris C-73-9. In kind it is in vivo. The method, then:
as §1

In data set [8] the test system is Salmonella typhi W-901-10. Nature of the data set: ED50 in mice suffering from infectious disease, Salmonella typhi W-901-10. In kind it is in vivo. Conditions: Salmonella enterica, iv. As for the experimental part: as §1
In data set [9] the test system is Kurebusiera pneumonia. Description: Minimum Inhibitory Concentration (antimicrobial activity), Kurebusiera pneumonia. In kind it is cell-based.
Data set [10] has as its system Staphylococcus aureaus. Description: Minimum Inhibitory Concentration (antimicrobial activity), Staphylococcus aureus. In kind it is cell-based.
The subject of data set [11] is Pseudomonas aeruginose. Description: Minimum Inhibitory Concentration (antimicrobial activity), Pseudomonas. In kind it is cell-based.
The mark [12] stands for this setting: acute toxicity, mice, Example 1 as disodium salt, read-out: LD50.
[13] abbreviates: Salmonella enteritidis No.11, intravenous, mice, Example 1 as disodium salt, read-out: ED50.
Setting [14] is: C739, Proteus vulgaris C-73-9 (strains produced from Cephalosporinase), intravenous, mice, Example 1 as disodium salt, read-out: ED50.

In brackets after ≈: the same amount, converted by molar mass. Where two headings read alike, the source gives them in different places.

Take `O=C(Cc1cccs1)NC1C(=O)N2C(C(=O)O)=C(CSc3nnc(C(=O)O)n3-c3ccccc3)CSC12` (centres unmarked) [Example 8, 7-(2-thienylacetamido)-3-(5-carboxy-1-phenyl-1,3,4-triazol-5-yl)thiomethyl-3-cephem-4-carboxylic acid]: the MIC in data set [1] is 25 µg/mL (≈ 44.8 µM); in data set [2], 0.78 µg/mL (≈ 1.4 µM); in data set [3], 12.5 µg/mL (≈ 22.4 µM).
With `Cn1c(CCC(=O)O)nnc1SCC1=C(C(=O)O)N2C(=O)C(NC(=O)Cc3cccs3)[C@H]2SC1` (some centres unmarked) [Example 3, 7-(2-thienylacetamido)-3-[5-(2-carboxyethyl)-1-methyl-1,3,4-triazol-2-yl]thiomethyl-3-cephem-4-carboxylic acid], the MIC in data set [1] turned out to be 1.56 µg/mL (≈ 2.98 µM); in data set [2], 0.78 µg/mL (≈ 1.49 µM); in [3], 0.78 µg/mL (≈ 1.49 µM).
As to `O=C(O)CCc1nnc(SCC2=C(C(=O)O)N3C(=O)C(NC(=O)Cc4cccs4)[C@H]3SC2)[nH]1` (some centres unmarked) [Example 2, 7-(2-thienylacetamido)-3-[5-(2-carboxyethyl)-1,3,4-triazol-2-yl]thiomethyl-3-cephem-4-carboxylic acid], the MIC in [1] came to 6.25 µg/mL (≈ 12.3 µM); in data set [2], 0.2 µg/mL (≈ 0.392 µM); in data set [3], 0.78 µg/mL (≈ 1.53 µM).
With `CC(=O)OCC1=C(C(=O)O)N2C(=O)[C@@H](NC(=O)Cc3cccs3)[C@H]2SC1` [Sodium Cephalotin, 7-(2-thienylacetamido)cephalosporanic acid, reference compound], the figures for the MIC in data set [1], in data set [2] and in data set [3] were 6.25 µg/mL, 2.5 µg/mL and 3.13 µg/mL, respectively. Moreover, the ED50 (as a rule, the midpoint of the dose-response relation) in data set [4] (Staphylococcus aureus, SMITHS424, iv) was 19 mg/kg; in data set [6] (ENTERITIDIS, iv), 480 mg/kg; in data set [7] (Proteus vulgaris, C739, iv), 14 mg/kg; in data set [8], 200 mg/kg. Also, in [5] (setting [12]), the LD50 (as a rule, the dose at which mortality reaches 50%) stood at 5180 mg/kg.
Regarding `Cn1cnnc1SCC1=C(C(=O)O)N2C(=O)C(NC(=O)Cc3cccs3)C2SC1` (centres unmarked) [Example 22, 7-(2-thienylacetamide)-3-(1-methyl-1,3,4-triazol-5-yl)thiomethyl-3-cephem-4-carboxylic acid], the MIC in [1] was 6.25 µg/mL (≈ 13.8 µM); in data set [9], 0.78 µg/mL (≈ 1.73 µM); in [10], 0.78 µg/mL (≈ 1.73 µM); in data set [2], 50 µg/mL (≈ 111 µM); in [11], 1.56 µg/mL (≈ 3.45 µM); in data set [3], 1.56 µg/mL (≈ 3.45 µM).
Regarding `O=C(Cc1cccs1)N[C@@H]1C(=O)N2C(C(=O)[O-])=C(C[n+]3ccccc3)CS[C@H]12` [Cephaloridine], in [5], the LD50 is 3840 mg/kg.
For `Cc1nnc(SCC2=C(C(=O)O)N3C(=O)[C@@H](NC(=O)Cn4cnnn4)[C@H]3SC2)s1` [Sodium Cephazoline], in [5] (setting [12]), the LD50 came to 3130 mg/kg. The figures for the ED50 in [6] (setting [13]) and in data set [7] (setting [14]) were 130 mg/kg and 18.5 mg/kg, respectively.
Consider `O=C(O)CCc1nnc(SCC2=C(C(=O)O)N3C(=O)C(NC(=O)Cc4cccs4)[C@H]3SC2)n1-c1ccccc1` (some centres unmarked) [Example 4, 7-(2-thienylacetamido)-3-[5-(2-carboxyethyl)-1-phenyl-1,3,4-triazol-2-yl]thiomethyl-3-cephem-4-carboxylic acid], for which the MIC in [1] came out at 25 µg/mL (≈ 42.7 µM); in [2] it was 1.56 µg/mL (≈ 2.66 µM); in data set [3], 25 µg/mL (≈ 42.7 µM).
Turning to `Cn1c(SCC2=C(C(=O)O)N3C(=O)C(NC(=O)Cc4cccs4)C3SC2)nnc1C(=O)O` (centres unmarked) [Example 7, 7-(2-thienylacetamido)-3-(5-carboxy-1-methyl-1,3,4-triazol-5-yl)-thiomethyl-3-cephem-4-carboxylic acid], the MIC amounted to 1.56 µg/mL (≈ 3.15 µM) in [1], 0.39 µg/mL (≈ 0.787 µM) in data set [2] and 0.78 µg/mL (≈ 1.57 µM) in data set [3].
Take `Cn1c(CC(=O)O)nnc1SCC1=C(C(=O)O)N2C(=O)C(NC(=O)Cc3cccs3)[C@H]2SC1` (some centres unmarked) [Example 5, 7-(2-thienylacetamido)-3-(5-carboxymethyl-1-methyl-1,3,4-triazol-2-yl)-thiomethyl-3-cephem-4-carboxylic acid]: the MIC in data set [1] worked out at 3.13 µg/mL (≈ 6.14 µM); in data set [2], 0.2 µg/mL (≈ 0.392 µM); in [3], 0.78 µg/mL (≈ 1.53 µM).
As for `O=C(O)Cc1nnc(SCC2=C(C(=O)O)N3C(=O)C(NC(=O)Cc4cccs4)[C@H]3SC2)[nH]1` (some centres unmarked) [Example 1, 7-(2-thienylacetamido)-3-(5-carboxymethyl-1,3,4-triazol-2-yl)thiomethyl-3-cephem-4-carboxylic acid], the MIC was 6.25 µg/mL (≈ 12.6 µM) in data set [1], 3.13 µg/mL (≈ 6.32 µM) in data set [2] and 0.78 µg/mL (≈ 1.57 µM) in [3]. The ED50 in data set [4] (SMITHS424, Staphylococcus aureus Smith S-424, intravenous, mice, Example 1 as dipotassium salt, read-out: ED50) came to 8.5 mg/kg; in [6] (setting [13]), 27 mg/kg; in [7] (setting [14]), 7.3 mg/kg; in data set [8], 52 mg/kg. The LD50 in [5] (setting [12]) came to 6300 mg/kg.
Take `O=C(Cc1cccs1)NC1C(=O)N2C(C(=O)O)=C(CSc3nnc(C(=O)O)[nH]3)CS[C@H]12` (some centres unmarked) [Example 6, 7-(2-thienylacetamido)-3-(5-carboxy-1,3,4-triazol-2-yl)thiomethyl-3-cephem-4-carboxylic acid]: the MIC in data set [1] was determined as 6.25 µg/mL (≈ 13 µM); in data set [2], 0.2 µg/mL (≈ 0.415 µM); in data set [3] it was 3.13 µg/mL (≈ 6.5 µM).

The record behind these values is US4113944A, “Cephalosporin-type antibiotics and process for producing the same” (Meiji Seika Kaisha, Ltd., priority 1974, dated 1978).
